Measured values from ChEMBL document CHEMBL4828766 (J Med Chem, 2021).
Calls of active or inactive are those of the source. No cut-off for these calls is given here. Square brackets hold non-standard residues; d marks the D form. Peptide text beside a SMILES is read from it. Phe(4-I) = N[C@@H](Cc1ccc(I)cc1)C(=O)O; dPhe(4-I) = N[C@H](Cc1ccc(I)cc1)C(=O)O; 2Nal = N[C@@H](Cc1ccc2ccccc2c1)C(=O)O; d2Nal = N[C@H](Cc1ccc2ccccc2c1)C(=O)O

Legend:
Melanocortin receptor 4 [1] = target: T1, Melanocortin receptor 4 (Mus musculus, UniProt P56450); experiment: Agonist activity at mouse MC4R expressed in HEK293 cells assessed as induction of cAMP level incubated for 2 hr by alphaScreen assay; format: functional, cell-based
[2] = target: Melanocyte-stimulating hormone receptor (Mus musculus) (UniProt Q01727); experiment: Agonist activity at mouse MC1R expressed in HEK293 cells assessed as induction of cAMP level at 100 uM incubated for 2 hr by alphaScreen assay relative to NDP-MSH; format: functional, cell-based; settings: filed as agonist
[3] = target: Melanocortin receptor 5 (Mus musculus) (UniProt P41149); experiment: Agonist activity at mouse MC5R expressed in HEK293 cells assessed as induction of cAMP level at 100 uM incubated for 2 hr by alphaScreen assay relative to control; format: functional, cell-based
Melanocortin receptor 3 [4] = target: T2, Melanocortin receptor 3 (Mus musculus, UniProt P33033); experiment: Agonist activity at mouse MC3R expressed in HEK293 cells assessed as induction of cAMP level incubated for 2 hr by alphaScreen assay; format: functional, cell-based
Melanocortin receptor 4 [5] = target: T1, Melanocortin receptor 4; experiment: Antagonist activity at mouse melanocortin receptor 4 expressed in HEK293 cells assessed as inhibition of NDP-MSH-induced cAMP accumulation incubated for 2 hrs by cAMP Alpha-screen assay based Schild analysis; format: functional, cell-based; settings: for Kb: read-out: pA2 (converted)
Melanocortin receptor 3 [6] = target: T2, Melanocortin receptor 3; experiment: (§1) Antagonist activity at mouse melanocortin receptor 3 expressed in HEK293 cells assessed as inhibition of NDP-MSH-induced cAMP accumulation incubated for 2 hrs by cAMP Alpha-screen assay based Schild analysis; format: functional, cell-based; settings: for Kb: read-out: pA2 (converted)
[7] = target: Melanocortin receptor 3 (Homo sapiens) (UniProt P41968); experiment: Inhibition of [125 I][Nle 4,D -Phe 7]alpha-MSH binding to human MC3R expressed in African green monkey COS-1 cell membrane by gamma-counter method; format: cell membranes
[8] = target: Melanocortin receptor 4 (Homo sapiens) (UniProt P32245); experiment: Inhibition of [125 I][Nle 4,D -Phe 7]alpha-MSH binding to human MC4R expressed in African green monkey COS-1 cell membrane by gamma-counter method; format: cell membranes
Melanocortin receptor 5 = Melanocortin receptor 5 (Mus musculus, UniProt P41149); experiment: Agonist activity at mouse MC5R expressed in HEK293 cells assessed as induction of cAMP level at 100 uM incubated for 2 hr by alphaScreen assay; format: functional, cell-based
[9] = target: Melanocortin receptor 4 (Mus musculus) (UniProt P56450); experiment: Antagonist activity at mouse melanocortin receptor 4 expressed in HEK293 cells assessed as inhibition of NDP-MSH-induced cAMP accumulation incubated for 2 hrs by cAMP Alpha-screen assay based Schild analysis
Target sequence in this assay (P56450 whole entry, looked up): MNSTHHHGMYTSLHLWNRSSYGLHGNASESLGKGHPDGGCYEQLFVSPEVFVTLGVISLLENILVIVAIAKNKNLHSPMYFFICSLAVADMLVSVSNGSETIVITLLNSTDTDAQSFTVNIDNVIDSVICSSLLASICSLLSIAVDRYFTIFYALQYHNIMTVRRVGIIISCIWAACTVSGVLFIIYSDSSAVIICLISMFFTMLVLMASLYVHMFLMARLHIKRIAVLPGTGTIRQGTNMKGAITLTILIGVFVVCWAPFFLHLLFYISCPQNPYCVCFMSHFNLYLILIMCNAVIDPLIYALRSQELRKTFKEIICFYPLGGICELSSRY

[10] = target: Melanocortin receptor 3 (Mus musculus) (UniProt P33033); experiment: as §1; format: functional, cell-based
[11] = target: Melanocortin receptor 3 (Mus musculus) (UniProt P33033); experiment: Agonist activity at mouse MC3R expressed in HEK293 cells assessed as induction of cAMP level at 100 uM incubated for 2 hr by alphaScreen assay relative to control; format: functional, cell-based
[12] = target: Melanocortin receptor 4 (Mus musculus) (UniProt P56450); experiment: (§2) Agonist activity at mouse MC4R expressed in HEK293 cells assessed as induction of cAMP level at 100 uM incubated for 2 hr by alphaScreen assay relative to control; format: functional, cell-based
Target sequence in this assay (P56450 whole entry): as the sequence (P56450 whole entry, looked up) above

[13] = target: Melanocyte-stimulating hormone receptor (Mus musculus) (UniProt Q01727); experiment: Partial agonist activity at mouse MC1R expressed in HEK293 cells assessed as induction of cAMP level at 100 uM incubated for 2 hr by alphaScreen assay relative to control; format: functional, cell-based
[14] = target: T3, Melanocyte-stimulating hormone receptor (Mus musculus, UniProt Q01727); experiment: Partial agonist activity at mouse MC1R expressed in HEK293 cells assessed as induction of cAMP level incubated for 2 hr by alphaScreen assay; format: functional, cell-based
[15] = target: T3, Melanocyte-stimulating hormone receptor; experiment: Agonist activity at mouse MC1R expressed in HEK293 cells assessed as induction of cAMP level at 100 uM incubated for 2 hr by alphaScreen assay; format: functional, cell-based
Melanocortin receptor 4 [16] = target: T1, Melanocortin receptor 4; experiment: as §2; format: functional, cell-based

Melanocortin receptor 3 (Mus musculus), sequence (P33033 whole entry): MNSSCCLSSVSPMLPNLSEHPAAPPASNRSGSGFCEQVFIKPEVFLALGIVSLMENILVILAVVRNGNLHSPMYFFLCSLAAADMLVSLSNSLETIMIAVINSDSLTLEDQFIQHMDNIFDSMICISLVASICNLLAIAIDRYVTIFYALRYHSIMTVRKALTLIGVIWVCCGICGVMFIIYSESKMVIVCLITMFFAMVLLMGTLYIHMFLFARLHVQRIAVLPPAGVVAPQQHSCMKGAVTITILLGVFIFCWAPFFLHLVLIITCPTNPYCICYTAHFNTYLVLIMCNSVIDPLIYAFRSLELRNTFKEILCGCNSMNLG
T2 sequence (P33033 whole entry): as above
Melanocortin receptor 5 (Mus musculus), sequence (P41149 whole entry): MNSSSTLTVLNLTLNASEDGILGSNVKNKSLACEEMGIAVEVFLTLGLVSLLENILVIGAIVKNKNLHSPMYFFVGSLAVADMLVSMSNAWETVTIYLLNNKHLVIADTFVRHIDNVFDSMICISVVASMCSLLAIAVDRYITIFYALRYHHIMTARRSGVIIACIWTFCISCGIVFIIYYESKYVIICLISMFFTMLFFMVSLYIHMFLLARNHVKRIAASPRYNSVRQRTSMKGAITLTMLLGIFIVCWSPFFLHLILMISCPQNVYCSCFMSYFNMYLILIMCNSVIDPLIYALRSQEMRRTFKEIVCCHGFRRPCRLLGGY
Melanocortin receptor 5, sequence (P41149 whole entry): as above
Melanocyte-stimulating hormone receptor (Mus musculus), sequence (Q01727 whole entry, looked up): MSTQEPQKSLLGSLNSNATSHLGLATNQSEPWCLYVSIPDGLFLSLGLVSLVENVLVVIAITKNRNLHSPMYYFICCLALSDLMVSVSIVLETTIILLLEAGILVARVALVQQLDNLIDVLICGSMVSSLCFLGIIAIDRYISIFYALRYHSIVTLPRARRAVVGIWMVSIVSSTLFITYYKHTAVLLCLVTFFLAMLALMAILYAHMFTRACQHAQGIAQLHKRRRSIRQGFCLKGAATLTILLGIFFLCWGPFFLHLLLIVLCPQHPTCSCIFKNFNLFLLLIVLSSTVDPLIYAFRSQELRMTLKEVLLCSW
T3 sequence (Q01727 whole entry): as the sequence (Q01727 whole entry, looked up) above
T1 sequence (P56450 whole entry): as the sequence (P56450 whole entry, looked up) above
Melanocortin receptor 3 (Homo sapiens), sequence (P41968 whole entry): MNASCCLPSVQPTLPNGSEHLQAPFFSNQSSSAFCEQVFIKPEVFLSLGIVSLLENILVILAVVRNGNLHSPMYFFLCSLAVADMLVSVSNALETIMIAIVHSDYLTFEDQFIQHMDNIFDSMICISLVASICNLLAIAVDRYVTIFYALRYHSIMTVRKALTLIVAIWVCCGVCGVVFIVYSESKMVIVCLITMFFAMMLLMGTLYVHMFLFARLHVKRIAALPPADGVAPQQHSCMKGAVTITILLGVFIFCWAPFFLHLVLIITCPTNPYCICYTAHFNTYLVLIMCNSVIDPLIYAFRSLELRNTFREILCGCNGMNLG
Melanocortin receptor 4 (Homo sapiens), sequence (P32245 whole entry): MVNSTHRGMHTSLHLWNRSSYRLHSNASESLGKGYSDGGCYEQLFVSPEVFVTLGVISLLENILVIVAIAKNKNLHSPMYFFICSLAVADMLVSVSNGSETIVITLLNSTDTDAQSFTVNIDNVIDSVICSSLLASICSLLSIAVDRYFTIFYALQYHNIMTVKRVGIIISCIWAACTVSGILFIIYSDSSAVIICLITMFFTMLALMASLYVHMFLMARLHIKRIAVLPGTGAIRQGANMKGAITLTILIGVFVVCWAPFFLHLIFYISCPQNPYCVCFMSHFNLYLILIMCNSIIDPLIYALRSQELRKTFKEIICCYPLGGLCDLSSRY

Row | Structure (SMILES) | EC50 (Melanocortin receptor 4 [1]) | Activity [2] | Activity ([3]; filed as agonist) | EC50 (Melanocortin receptor 3 [4]) | Kb (Melanocortin receptor 4 [5]) | Kb (Melanocortin receptor 3 [6]) | EC50 (Melanocortin receptor 5) | EC50 [14] | also measured
1 | CC(=O)N[C@H](Cc1ccc2ccccc2c1)C(=O)N[C@H](Cc1ccc2ccccc2c1)C(=O)N[C@@H](Cc1ccc2ccccc2c1)C(=O)N[C@@H](CCCNC(=N)N)C(N)=O | > 100000 nM | 55% | 40% | > 100000 nM | > 3160 nM | > 3160 nM | – | – | –
2 | CC(=O)N[C@@H](Cc1ccc2ccccc2c1)C(=O)N[C@@H](CCCNC(=N)N)C(=O)N[C@@H](Cc1ccc2ccccc2c1)C(N)=O | – | – | – | – | – | – | – | – | Activity [7]: 1120 nM; Activity [8]: 11.6 nM
3 | CC(=O)N[C@@H](Cc1ccc(I)cc1)C(=O)N[C@@H](Cc1ccc2ccccc2c1)C(=O)N[C@@H](Cc1ccc(I)cc1)C(=O)N[C@@H](CCCNC(=N)N)C(N)=O (Ac-[Phe(4-I)][2Nal][Phe(4-I)]R-NH2) | > 100000 nM | 60% | – | > 100000 nM | – | – | > 100000 nM | – | pA2 [9]: inactive; pA2 [10]: inactive
4 | CC(=O)N[C@H](Cc1ccc2ccccc2c1)C(=O)N[C@@H](CCCNC(=N)N)C(=O)N[C@@H](Cc1ccc2ccccc2c1)C(=O)N[C@H](Cc1ccc2ccccc2c1)C(N)=O (Ac-[d2Nal]R[2Nal][d2Nal]-NH2) | – | – | – | – | 200 nM | > 3160 nM | – | – | Activity [3]: 25%; Activity [11]: 30%; Activity [12]: 30%
5 | CC(=O)N[C@H](Cc1ccc2ccccc2c1)C(=O)N[C@@H](CCCNC(=N)N)C(=O)N[C@@H](Cc1ccc2ccccc2c1)C(=O)N[C@H](CCCCN)C(N)=O (Ac-[d2Nal]R[2Nal][dK]-NH2) | > 100000 nM | – | – | > 100000 nM | 15.8 nM | 631 nM | > 100000 nM | 3300 nM | Activity ([13]; filed as partial agonist): 50%
6 | CC(=O)N[C@H](Cc1ccc2ccccc2c1)C(=O)N[C@@H](CCCNC(=N)N)C(=O)N[C@H](Cc1ccc2ccccc2c1)C(=O)N[C@@H](CCCNC(=N)N)C(N)=O (Ac-[d2Nal]R[d2Nal]R-NH2) | > 100000 nM | – | – | > 100000 nM | 5.01 nM | 794 nM | > 100000 nM | 1000 nM | Activity ([13]; filed as partial agonist): 60%
7 | CC(=O)N[C@H](Cc1ccc2ccccc2c1)C(=O)N[C@@H](CCCNC(=N)N)C(=O)N[C@H](Cc1ccc2ccccc2c1)C(=O)N[C@H](Cc1ccc2ccccc2c1)C(N)=O (Ac-[d2Nal]R[d2Nal][d2Nal]-NH2) | – | – | – | – | 501 nM | 2000 nM | – | 5000 nM | Activity [3]: 20%; Activity ([13]; filed as partial agonist): 85%; Activity ([11]; filed as agonist): 50%; Activity ([12]; filed as agonist): 45%
8 | CC(=O)N[C@H](Cc1ccc2ccccc2c1)C(=O)N[C@@H](CCCNC(=N)N)C(=O)N[C@H](Cc1ccc2ccccc2c1)C(=O)N[C@H](CCCCN)C(N)=O (Ac-[d2Nal]R[d2Nal][dK]-NH2) | > 100000 nM | – | – | > 100000 nM | 6.31 nM | 1000 nM | > 100000 nM | 6000 nM | Activity [13]: 30%
9 | CC(=O)N[C@H](Cc1ccc2ccccc2c1)C(=O)N[C@@H](CCCNC(=N)N)C(=O)N[C@H](Cc1ccc(I)cc1)C(=O)N[C@H](Cc1ccc2ccccc2c1)C(N)=O (Ac-[d2Nal]R[dPhe(4-I)][d2Nal]-NH2) | – | – | 40% | – | – | – | – | – | Activity [12]: 30%
10 | CC(=O)N[C@H](Cc1ccc2ccccc2c1)C(=O)N[C@H](Cc1ccc2ccccc2c1)C(=O)N[C@@H](Cc1c[nH]c2ccccc12)C(=O)N[C@@H](CCCNC(=N)N)C(N)=O (Ac-[d2Nal][d2Nal]WR-NH2) | – | 45% | 45% | – | > 3160 nM | > 3160 nM | – | – | Activity [11]: 35%; Activity ([12]; filed as agonist): 60%
11 | CC(=O)N[C@H](Cc1ccc(I)cc1)C(=O)N[C@@H](CCCNC(=N)N)C(=O)N[C@@H](Cc1c[nH]c2ccccc12)C(=O)N[C@@H](CCCNC(=N)N)C(N)=O (Ac-[dPhe(4-I)]RWR-NH2) | > 100000 nM | – | – | – | 2 nM | 39.8 nM | > 100000 nM | 7900 nM | Activity ([13]; filed as partial agonist): 50%; Ki (Melanocortin receptor 4 [5]): 2 nM; Activity [11]: 25%; Ki (Melanocortin receptor 3 [6]): 40 nM
12 | CC(=O)N[C@H](Cc1ccc(I)cc1)C(=O)N[C@@H](CCCNC(=N)N)C(=O)N[C@H](Cc1ccc2ccccc2c1)C(=O)N[C@H](Cc1ccc2ccccc2c1)C(N)=O (Ac-[dPhe(4-I)]R[d2Nal][d2Nal]-NH2) | – | 80% | – | – | 200 nM | 794 nM | – | – | Activity [3]: 20%; Ki (Melanocortin receptor 4 [5]): 200 nM; Activity ([11]; filed as agonist): 45%; Activity ([12]; filed as agonist): 45%; Ki (Melanocortin receptor 3 [6]): 790 nM
13 | CC(=O)N[C@H](Cc1ccc(I)cc1)C(=O)N[C@@H](CCCNC(=N)N)C(=O)N[C@H](Cc1ccc2ccccc2c1)C(=O)N[C@H](CCCCN)C(N)=O (Ac-[dPhe(4-I)]R[d2Nal][dK]-NH2) | – | – | – | – | – | – | – | – | Activity [13]: 30%
14 | CC(=O)N[C@H](Cc1ccc(I)cc1)C(=O)N[C@@H](CCCNC(=N)N)C(=O)N[C@H](Cc1ccc(I)cc1)C(=O)N[C@H](Cc1ccc2ccccc2c1)C(N)=O (Ac-[dPhe(4-I)]R[dPhe(4-I)][d2Nal]-NH2) | – | – | 65% | – | 251 nM | 501 nM | – | – | Ki (Melanocortin receptor 4 [5]): 250 nM; EC50 [15]: 1100 nM; Activity ([11]; filed as agonist): 40%; Activity ([12]; filed as agonist): 40%; Ki (Melanocortin receptor 3 [6]): 500 nM
15 | CC(=O)N[C@H](Cc1ccc(I)cc1)C(=O)N[C@H](Cc1ccc2ccccc2c1)C(=O)N[C@@H](Cc1ccc2ccccc2c1)C(=O)N[C@H](CCCCN)C(N)=O (Ac-[dPhe(4-I)][d2Nal][2Nal][dK]-NH2) | > 100000 nM | 40% | 50% | – | > 3160 nM | > 3160 nM | – | – | Activity [11]: 20%; EC50 (Melanocortin receptor 4 [16]): > 100000 nM
